Experimental data: US20230330254A1 (Regeneron Pharmaceuticals, Inc., priority 2022, published 2023)
Like-named read-outs stand apart in the source and are kept apart here. Where a SMILES comes first, the peptide text is derived from it. [ ]: non-standard residue; d: D form. The star is where a group is joined. Bip(2'-Et,4'-O(CH2)4N3) = CCc1cc(OCCCCN=[N+]=[N-])ccc1-c1ccc(C[C@H](N)C(=O)O)cc1; Bip(2'-Et,4'-O(CH2)4NH2) = CCc1cc(OCCCCN)ccc1-c1ccc(C[C@H](N)C(=O)O)cc1; Malonyl(2,2-Me2,histaminyl) = CC(C)(C(=O)NCCc1cnc[nH]1)C(=O)*; Nva(5-(3,5-Me2Ph)) = Cc1cc(C)cc(CCC[C@H](N)C(=O)O)c1; Ala(1H-tetrazol-5-yl) = N[C@@H](Cc1nnn[nH]1)C(=O)O; αMePhe(2-F) = C[C@](N)(Cc1ccccc1F)C(=O)O; Desaminohistidyl = O=C(CCc1c[nH]cn1)*; Aib = CC(C)(N)C(=O)O; NHPh = c1ccc(N*)cc1

Key:
[1] = Plasma stability of payloads and linker-payloads, human plasma; assay type: in vitro ADME; conditions: plasma, 2 μM, 37° C.; for half-life at 2 µM: read-out: Human plasma stability assay T½ (converted)
Method: The plasma stability of payloads and linker payloads of the disclosure were measured. For the assay, pooled frozen plasma (human, mouse or monkey) was thawed in cold water or a 37° C. water bath prior to experiment. Plasma was centrifuged at 4000 rpm for 5 min if any clots were observed, they were subsequently removed. If required, the pH was adjusted to 7.4±0.1. For the preparation of compounds and positive controls, a 1 mM intermediate solution was prepared by diluting 10 μL of their stock solution with 90 μL DMSO; a 1 mM intermediate solution of the positive control (Propantheline) was prepared by diluting 10 μL of its stock solution with 90 μL ultrapure water. […] 98 μL of plasma was spiked with 2 μL of dosing solution (100 μM) to achieve the final concentration of 2 μM in duplicate. Samples were then incubated at 37° C. in a water bath. […] At each time point, 400 μL of stop solution (200 ng/mL tolbutamide plus 200 ng/mL labetalol in 50% ACN/MeOH) was added to precipitate protein and mixed thoroughly. Sample plates were then centrifuged at 4,000 rpm for 10 min. An aliquot of supernatant (50 μL) was transferred from each well and mixed with 100 μL ultrapure water. The samples were then shaken at 800 rpm for approximately 10 min before submitting for LC-MS/MS analysis.

human GLP1R [2] = biological target: T1, human GLP1R (Homo sapiens, UniProt P43220); test: Luciferase reporter assay, HEK293/CRE-Luc/hGLP1R (Example 17); assay type: cell-based; set-up: engineered to express full-length human GLP1R, cynomolgus GLP1R; expressed in transfected cells; host or cells: HEK293/CRE-Luc; conditions: HEK293/CRE-Luc/hGLP1R; for S/N: highest RLU / RLU of untreated wells; for EC50: payloads and linker-payloads, experiments A-E, M2361 repeated in each, read-out: EC50; for Relative Potency (% M2361 EC50) / Relative Signal:Noise (% M2361): relative to M2361 of the same experiment
How it was run: (§1)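 HEK293 cells carrying a CRE-driven firefly luciferase reporter were exposed to 3-fold serial dilutions of payloads or linker-payloads (12 points, 0.2% DMSO final) for 4–6 h, then luminescence was read. EC50 came from a four-parameter logistic fit; S/N is top RLU over untreated wells, and relative potency and S/N are referenced to M2361.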

[3] = Plasma stability of payloads (t½)
human GLP1R [4] = biological target: T1, human GLP1R; test: Human GLP1R cAMP accumulation assay; assay type: cell-based; set-up: HEK293 cells over-expressing full length human GLP-1R were utilized; expressed in transfected cells; host or cells: HEK293 (HEK293/hGLP1R); conditions: HEK293/hGLP1R cells; Table 4; read-out: cAMP EC50
How it was run: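 cAMP accumulation measured after 30 min at 23° C, with 500 μM IBMX in HEPES-buffered HBSS plus 0.1% BSA, in HEK293 cells expressing full-length hGLP-1R. Levels read by D2-cAMP/antibody immunoassay via standard curve, scaled between low and high controls. EC50 fitted four-parameter over a 10-point curve.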

HEK293/CRE-Luc cells [5] = test: Luciferase reporter assay, HEK293/CRE-Luc cells without GLP1R (Example 17); assay type: cell-based, human; conditions: HEK293/CRE-Luc cells without hGLP1R, payloads and linker-payloads; for EC50: read-out: EC50
How it was run: as §1

HEK293/CRE-Luc cells [6] = test: Luciferase reporter assay, HEK293/CRE-Luc cells without hGLP1R (Example 11); assay type: cell-based, human; conditions: Table 11; Experiment A; no hGLP1R expression
Source text: (§2) To test the activity of GLP1R agonist payloads, GLP1R agonist linker-payloads (LPs), and anti-GLP1R antibody tethered drug conjugates (ATDCs) of the disclosure, a cell-based cAMP responsive luciferase reporter assay was developed. To generate the assay cell line, the firefly luciferase gene was placed under the control of a cAMP response element (CRE) located upstream of a minimal promoter and transfected into HEK293 cells and referred to herein as HEK293/CRE-Luc cells.
(§3) Three-fold serial dilutions of free payloads or LPs were prepared in 100% DMSO, transferred to fresh assay media, and added to the cells at a final constant DMSO concentration of 0.2%. The last well in the plate served as a blank control containing only the assay media and 0.2% DMSO (untreated well) and was plotted as a continuation of the 3-fold serial dilution. Four to six hours later, luciferase activity was determined after the addition of One-Glo™ reagent (Promega, Cat #E6130) to each well. Relative light units (RLUs) were measured on an Envision luminometer (PerkinElmer) and EC50 values were determined using a four-parameter logistic equation over a 12-point dose response curve (GraphPad Prism). The signal to noise (S/N) was determined by taking the ratio of the highest RLU on the dose response curve to the RLU in the untreated wells.

human GLP1R [7] = biological target: T1, human GLP1R; test: Luciferase reporter assay, HEK293/CRE-Luc/hGLP1R cells (Example 11); assay type: cell-based; set-up: engineered to express full-length human GLP1R, cynomolgus GLP1R; expressed in transfected cells; host or cells: HEK293/CRE-Luc; conditions: Table 11; Experiment A
Source text: as §2, §3
GLP1R agonist linker payloads were conjugated to anti-hGLP1R antibodies via N-terminal heavy or light chain Q tags. Several resulting anti-GLP1R antibody tethered drug conjugates (ATDCs) were tested for activity in the HEK293/CRE-Luc/hGLP1R reporter assay as described above for the free GLP1R payload and linker-payload agonists.

[8] = pH 7.4, tested time B (2 hrs per footnote)
[9] = pH 7.4, tested time A (1 day per footnote)

T1 sequence (P43220 24-463): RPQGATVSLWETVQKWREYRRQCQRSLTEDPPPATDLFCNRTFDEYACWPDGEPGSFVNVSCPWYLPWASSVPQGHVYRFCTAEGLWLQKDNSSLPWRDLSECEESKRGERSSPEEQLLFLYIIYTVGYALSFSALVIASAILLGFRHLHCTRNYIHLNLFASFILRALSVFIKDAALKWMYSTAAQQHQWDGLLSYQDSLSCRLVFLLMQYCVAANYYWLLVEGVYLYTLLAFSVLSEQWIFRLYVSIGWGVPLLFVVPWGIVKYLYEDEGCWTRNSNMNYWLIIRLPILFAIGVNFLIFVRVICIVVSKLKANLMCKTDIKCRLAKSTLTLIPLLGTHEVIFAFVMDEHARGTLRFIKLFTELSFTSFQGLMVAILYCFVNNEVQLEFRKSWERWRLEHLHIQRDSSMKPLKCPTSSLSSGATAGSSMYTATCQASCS

Row | SMILES | half-life at 2 µM ([1]; pH 7.4, tested time C (3 days)) [h] | half-life ([1]; tested time C (3 days), read-out: Human plasma stability assay T½) [h] | S/N (human GLP1R [2]) | EC50 (human GLP1R [2]) [nM] | Relative Potency (% M2361 EC50) (human GLP1R [2]) [%] | Relative Signal:Noise (% M2361) (human GLP1R [2]) [%] | half-life at 2 µM [1, 8] [h] | Plasma stability t½ [3] [h] | EC50 (human GLP1R [4]) [nM] | S/N (HEK293/CRE-Luc cells [5]) | EC50 (HEK293/CRE-Luc cells [5]) [nM] | EC50 (HEK293/CRE-Luc cells [6]) [nM] | HEK293/CRE-LUC S/N (HEK293/CRE-Luc cells [6]) | EC50 (human GLP1R [7]) [nM] | HEK293/CRE-LUC/hGLP1R Relative Potency (% P8 EC50) (human GLP1R [7]) [%] | HEK293/CRE-LUC/hGLP1R S/N (human GLP1R [7]) | half-life at 2 µM [1, 9] [h]
1 | CCc1cc(OCCCCn2cc(COCCOCCOCCOCCOCCOCCOCCOCCN)nn2)ccc1-c1ccc(C[C@H](NC(=O)[C@H](CC(=O)O)NC(=O)[C@H](CO)NC(=O)[C@@H](NC(=O)[C@](C)(Cc2ccccc2F)NC(=O)[C@@H](NC(=O)CNC(=O)[C@H](Cc2nn[nH]n2)NC(=O)C(C)(C)NC(=O)[C@@H](N)Cc2ccc(O)cc2)[C@@H](C)O)[C@@H](C)O)C(=O)N[C@@H](CCCc2cc(C)cc(C)c2)C(N)=O)cc1 [LP29, NH2-PEG8-triazole-P19] | > 173 | – | – | – | – | – | – | – | – | – | – | – | – | – | – | – | –
2 | CCc1cc(OCCCCn2cc(COCCOCCOCCOCCOCCOCCOCCOCCC(=O)N[C@@H](CC(C)C)C(=O)N3CCC[C@@H]3C(=O)N[C@@H](CCC(=O)O)C(=O)N[C@H](C(=O)NCC(=O)NCC(=O)O)[C@@H](C)O)nn2)ccc1-c1ccc(C[C@H](NC(=O)[C@H](CC(=O)O)NC(=O)[C@H](CO)NC(=O)[C@@H](NC(=O)[C@](C)(Cc2ccccc2F)NC(=O)[C@@H](NC(=O)CNC(=O)[C@H](Cc2nn[nH]n2)NC(=O)C(C)(C)C(=O)NCCc2cnc[nH]2)[C@@H](C)O)[C@@H](C)O)C(=O)N[C@@H](CCCc2cc(C)cc(C)c2)C(N)=O)cc1 [LP34, GGT EPL-PEG8-triazole-P8] | – | > 173 | – | – | – | – | – | – | – | – | – | – | – | – | – | – | –
3 | CCc1cc(OCCCCN)ccc1-c1ccc(C[C@H](NC(=O)[C@H](CC(=O)O)NC(=O)[C@H](CO)NC(=O)[C@@H](NC(=O)[C@](C)(Cc2ccccc2F)NC(=O)[C@@H](NC(=O)CNC(=O)[C@@H](N)Cc2nn[nH]n2)[C@@H](C)O)[C@@H](C)O)C(=O)N[C@@H](CCCc2cc(C)cc(C)c2)C(N)=O)cc1 [P2] | – | – | 306.2 | 19 | 0.1 | 93.4 | 10.7 | 10.7 | – | – | – | – | – | – | – | – | –
4 | CCc1cc(OCCCCN)ccc1-c1ccc(C[C@H](NC(=O)[C@H](CC(=O)O)NC(=O)[C@H](CO)NC(=O)[C@@H](NC(=O)[C@](C)(Cc2ccccc2F)NC(=O)[C@@H](NC(=O)CNC(=O)[C@H](Cc2nn[nH]n2)NC(=O)[C@H](C)NC(=O)[C@@H](N)Cc2cnc[nH]2)[C@@H](C)O)[C@@H](C)O)C(=O)N[C@@H](CCCc2cc(C)cc(C)c2)C(N)=O)cc1 [P10] (H-HA[Ala(1H-tetrazol-5-yl)]GT[αMePhe(2-F)]TSD[Bip(2'-Et,4'-O(CH2)4NH2)][Nva(5-(3,5-Me2Ph))]-NH2) | – | – | 45.1 | 0.014 | 38.0 | 68.6 | 1.83 | – | 0.047 | 1.2 | > 200 | > 200 | 1.2 | 0.014 | 38.0 | 45.1 | –
5 | CCc1cc(OCCCCN)ccc1-c1ccc(C[C@H](NC(=O)[C@H](CC(=O)O)NC(=O)[C@H](CO)NC(=O)[C@@H](NC(=O)[C@](C)(Cc2ccccc2F)NC(=O)[C@@H](NC(=O)CNC(=O)[C@H](Cc2nn[nH]n2)NC(=O)CNC(=O)CCc2c[nH]cn2)[C@@H](C)O)[C@@H](C)O)C(=O)N[C@@H](CCCc2cc(C)cc(C)c2)C(N)=O)cc1 [P12] (Desaminohistidyl-G[Ala(1H-tetrazol-5-yl)]GT[αMePhe(2-F)]TSD[Bip(2'-Et,4'-O(CH2)4NH2)][Nva(5-(3,5-Me2Ph))]-NH2) | – | – | – | 0.0114 | – | – | – | >57.8 | 0.039 | – | – | – | – | 0.0114 | – | – | > 57.8
6 | CCc1cc(OCCCCN)ccc1-c1ccc(C[C@H](NC(=O)[C@H](CC(=O)O)NC(=O)[C@H](CO)NC(=O)[C@@H](NC(=O)[C@](C)(Cc2ccccc2F)NC(=O)[C@@H](NC(=O)CNC(=O)[C@H](Cc2nn[nH]n2)NC(=O)C(C)(C)NC(=O)[C@@H](N)Cc2ccc(O)cc2)[C@@H](C)O)[C@@H](C)O)C(=O)N[C@@H](CCCc2cc(C)cc(C)c2)C(N)=O)cc1 [P19] (H-Y[Aib][Ala(1H-tetrazol-5-yl)]GT[αMePhe(2-F)]TSD[Bip(2'-Et,4'-O(CH2)4NH2)][Nva(5-(3,5-Me2Ph))]-NH2) | – | – | 78.5 | 0.0535 | 9.9 | 119.4 | – | >57.8 | 0.156 | 1.0 | > 200 | – | – | – | – | – | > 57.8
7 | CCc1cc(OCCCCN)ccc1-c1ccc(C[C@H](NC(=O)[C@H](CC(=O)O)NC(=O)[C@H](CO)NC(=O)[C@@H](NC(=O)[C@](C)(Cc2ccccc2F)NC(=O)[C@@H](NC(=O)CNC(=O)[C@H](Cc2nn[nH]n2)NC(=O)C(C)(C)C(=O)NCCc2cnc[nH]2)[C@@H](C)O)[C@@H](C)O)C(=O)N[C@@H](CCCc2cc(C)cc(C)c2)C(=O)Nc2ccccc2)cc1 [P23] ({Malonyl(2,2-Me2,histaminyl)}-[Ala(1H-tetrazol-5-yl)]GT[αMePhe(2-F)]TSD[Bip(2'-Et,4'-O(CH2)4NH2)][Nva(5-(3,5-Me2Ph))]-NHPh) | – | – | 57.1 | 0.00515 | 103.0 | 86.9 | 10.7 | – | 0.198 | 1.6 | > 200 | > 200 | 1.6 | 0.00515 | 103.0 | 57.1 | –
8 | CCc1cc(OCCCCN=[N+]=[N-])ccc1-c1ccc(C[C@H](NC(=O)[C@H](CC(=O)O)NC(=O)[C@H](CO)NC(=O)[C@@H](NC(=O)[C@](C)(Cc2ccccc2F)NC(=O)[C@@H](NC(=O)CNC(=O)[C@H](Cc2nn[nH]n2)NC(=O)C(C)(C)C(=O)NCCc2cnc[nH]2)[C@@H](C)O)[C@@H](C)O)C(=O)N[C@@H](CCCc2cc(C)cc(C)c2)C(=O)O)cc1 [P41] ({Malonyl(2,2-Me2,histaminyl)}-[Ala(1H-tetrazol-5-yl)]GT[αMePhe(2-F)]TSD[Bip(2'-Et,4'-O(CH2)4N3)][Nva(5-(3,5-Me2Ph))]-OH) | – | – | – | – | – | – | – | – | – | – | – | – | – | – | – | – | > 57.8
